From patent publication US4209426A, “Polypeptides related to somatostatin” (American Home Products Corporation, priority 1979, dated 1980)
Counter-ions that a name gives are not always drawn. Bridge positions count the residues as written; N and C are the ends. Square brackets hold non-standard residues; d marks the D form. Peptide text beside a SMILES is read from it.

What was measured:
Format in all cases: in vivo
glucagon = experiment: Arginine-stimulated glucagon secretion in Nembutal-anesthetized rats, radioimmunoassay of blood; conditions: for GLUN: albino male rats; for dose with selectivity of action toward glucagon: rats, subcutaneous, summary statement
Description: (§1) The biological activity of the products of the preceding preparatory examples were determined by the following procedure:
(§2) Albino male rats were administered Nembutal intraperitoneally at a dose of 50 milligrams per kilogram. Fifteen minutes later a subcutaneous injection of the test compound of physiological saline was administered. Ten minutes later 0.5 milliliters of arginine (300 milligrams per milliliter, pH 7.2) is injected into the heart. Five minutes after receipt of the arginine the rats are decapitated and blood is collected into trasylol-EDTA. An appropriate aliquot was assayed for growth hormone (GH), insulin and glucagon by radio immunoassay.

growth hormone (GH) = experiment: Arginine-stimulated growth hormone secretion in Nembutal-anesthetized rats, radioimmunoassay of blood; conditions: for GH: albino male rats; for dose effective for reducing secretion of growth hormone, glucagon, and insulin levels: rats, subcutaneous, summary statement covering GH
Description: as §1, §2

insulin = experiment: Arginine-stimulated insulin secretion in Nembutal-anesthetized rats, radioimmunoassay of blood; conditions: albino male rats
Description: as §1, §2

[1] = 200 μg/kg subcutaneous, blood 15 min after compound, control 379 ± 109 (Example 2), 46 ± 72 (Example 3)
[2] = 200 μg/kg subcutaneous, blood 15 min after compound (5 min after arginine), control 268 ± 46 (Example 2), 407 ± 62 (Example 3)
[3] = 200 μg/kg subcutaneous, blood 15 min after compound, control 323 ± 28 (Example 2), 271 ± 44 (Example 3)

| SMILES | GLUN (glucagon; [1]) | dose with selectivity of action toward glucagon (glucagon) | GH (growth hormone (GH); [2]) | dose effective for reducing secretion of growth hormone, glucagon, and insulin levels (growth hormone (GH)) | INS (insulin; [3]) | GLUN (glucagon; 10 μg/kg subcutaneous, control 52 ± 10) | GLUN (glucagon; 50 μg/kg subcutaneous, control 86 ± 6) | GH (growth hormone (GH); 10 μg/kg subcutaneous, control 335 ± 33) | GH (growth hormone (GH); 50 μg/kg subcutaneous, control 202 ± 11) | INS (insulin; 10 μg/kg subcutaneous, control 309 ± 31) | INS (insulin; 50 μg/kg subcutaneous, control 238 ± 23) |
| --- | --- | --- | --- | --- | --- | --- | --- | --- | --- | --- | --- |
| C[C@@H](O)[C@@H]1NC(=O)[C@H](Cc2ccccc2)NC(=O)[C@H]([C@@H](C)O)NC(=O)[C@H](CCCCN)NC(=O)[C@@H](Cc2c[nH]c3ccccc23)NC(=O)[C@H](Cc2ccccc2)NC(=O)[C@H](Cc2ccccc2)NC(=O)[C@H](Cc2ccc(O)cc2)NC(=O)[C@H](Cc2c[nH]cn2)NC(=O)[C@@H](N)CSSC[C@@H](C(=O)O)NC(=O)[C@H](CO)NC1=O [Example 2, L-Cysteinyl-L-histidyl-L-tyrosyl-L-phenylalanyl-L-phenylalanyl-D-tryptophyl-L-lysyl-L-threonyl-L-phenylalanyl-L-threonyl-L-seryl-L-cysteine cyclic (1-12) disulfide diacetate salt] (H-CHYFF[dW]KTFTSC-OH; disulfide 1-12) | 58 ± 24 pg/mL | ≤ 10 micrograms per kilogram | 68 ± 14 ng/mL | ≤ 50 micrograms per kilogram | 254 ± 38 μU/ml. | – | – | – | – | – | – |
| C[C@@H](O)[C@@H]1NC(=O)[C@H](Cc2ccccc2)NC(=O)[C@H]([C@@H](C)O)NC(=O)[C@H](CCCCN)NC(=O)[C@@H](Cc2c[nH]c3ccccc23)NC(=O)[C@H](Cc2ccccc2)NC(=O)[C@H](Cc2ccccc2)NC(=O)[C@H](Cc2ccc(O)cc2)NC(=O)[C@H](CCCNC(=N)N)NC(=O)[C@@H](N)CSSC[C@@H](C(=O)O)NC(=O)[C@H](CO)NC1=O [Example 3, L-Cysteinyl-L-arginyl-L-tyrosyl-L-phenylalanyl-L-phenylalanyl-D-tryptophyl-L-lysyl-L-threonyl-L-phenylalanyl-L-threonyl-L-seryl-L-cysteine cyclic (1-12) disulfide triacetate salt] (H-CRYFF[dW]KTFTSC-OH; disulfide 1-12) | 13 ± 3 pg/mL | ≤ 10 micrograms per kilogram | 101 ± 24 ng/mL | ≤ 50 micrograms per kilogram | 59 ± 16 μU/ml. | 12 ± 4 pg/mL | 12 ± 4 pg/mL | 207 ± 29 ng/mL | 80 ± 16 ng/mL | 278 ± 36 μU/ml. | 85 ±14 μU/ml. |
